We go through 7 compounds from patent US12421253B2 (Mirati Therapeutics, Inc., priority 2020, dated 2025).

A value given as a limit tells only on which side of the number the result lay.

One experiment deals with T1, KRas^G12D (Homo sapiens, UniProt P01116, G12D).
T1 construct: […]; biotin (biotinylated); purchased Accelegan Inc
Description: KRas binding assay (TR-FRET displacement of Cy5 labelled tracer). On the technique in general: Time-resolved FRET reads energy transfer from a long-lived donor to a nearby acceptor.

In experiment [1] the test system is AsPC-1 (G12D) cells, phospho-ERK. The experiment in a line: Inhibition of KRas-mediated phosphorylation of ERK (phospho-ERK/GAPDH antibody detection, LI-COR). As to conditions: Homo sapiens, ASPC1, 3 hours. The class given is cell-based. The protocol: (§1) AsPC-1 (G12D, ATCC CRL-1682), A549 (G12S, ATCC CCL-185), HCT116 (G13D, ATCC CCL-247) cells were grown in DMEM medium supplemented with 10% fetal bovine serum and Penicillin/Streptomycin. NCI-H358 (G12C, ATCC CRL-5807), NCI-H460 (Q61H, ATCC HTB-117), NCI-H727 (G12V, ATCC CRL-5815), MKN1 (WTdep, JCRB JCRB0252), PSN-1 (G12R, ATCC CRM-CRL-3211) cells were grown in RPMI medium supplemented with 10% fetal bovine serum, 10 mM HEPES, 10 mM Sodium Pyruvate, and Penicillin/Streptomycin. Cells were plated in black well clear bottom tissue culture treated 96 well plates (Corning, 3904) at a density of 20,000 cells/well and allowed to attach for 12-14 hours. Diluted compounds were then added in a final concentration of 0.5% DMSO. After 3 hours, 50 μL of 4.0% formaldehyde was added and the plates incubated at room temperature for 20 minutes. The plates were then dumped and permeabilized with 150 μL of ice cold 100% methanol for 10 minutes. Non-specific antibody binding to the plates was blocked using 100 μL Odyssey blocking buffer (LI-COR Biosciences, 927-60010) for 1 hour at room temperature.
(§2) The amount of phospho-ERK was determined using an antibody specific for the phosphorylated form of ERK and compared to the amount of GAPDH. Primary antibodies used for the detection were added as follows: Phospho-ERK (Cell Signaling CS-9101) diluted 1:500 and GAPDH (Millipore MAB374) diluted 1:5000 in Odyssey blocking buffer+0.05% Tween 20. The plates were incubated overnight at 4 C. The plates were washed 3× with 150 uL PBS+0.1% Tween 20.
(§3) Secondary antibodies used to visualize primary antibodies were added as follows: Goat Anti-Rabbit-800 (LI-COR, 926-32211) and Goat Anti-Mouse-680 (LI-COR, 926-68070) diluted 1:800 both in Odyssey blocking buffer+0.05% Tween 20 and were incubated for 1 hour at room temperature. The plates were washed 3× with 150 uL PBS+[…]. Plates were imaged dry on a Li—COR Odyssey CLX plate reader.
(§4) The phospho-ERK (Thr202/Tyr204) signal was normalized to the GAPDH signal for each well and percent of DMSO control values were calculated. IC50 values were generated using a 4-parameter fit of the dose response curve.

Experiment [2] relates to NCI-H460 (Q61H) cells, phospho-ERK. Described as above. The conditions noted are these: Homo sapiens, 3 hours. The class given is cell-based. The protocol:
as §1, §2, §3, §4

Experiment [3] relates to NCI-H727 (G12V) cells, phospho-ERK. The experiment is described as above. As to conditions: Homo sapiens, 3 hours. The class given is cell-based. How it is done: as §1, §2, §3, §4
A further experiment deals with T2, KRas^G12V (Homo sapiens, UniProt P01116, G12V).
T2 construct: […]; biotin (biotinylated); purchased Accelegan Inc
Description: KRas binding assay (TR-FRET displacement of Cy5 labelled tracer).

For the next experiment, the target named is T3, KRas^G12R (Homo sapiens, UniProt P01116, G12R).
T3 construct: […]; biotin (biotinylated); purchased Accelegan Inc
The experiment is described as above.

A further experiment deals with HCT116 cells, pERK. Description: Inhibition of KRas phosphorylation of ERK (Cisbio HTRF Advanced pERK assay). The class given is cell-based. The conditions noted are these: Homo sapiens, HCT-116, 3 hrs, read-out: Inhibition (HTRF IC50 nM) of KRas-mediated Phosphorylation of ERK, HCT116. Summed up:
(§5)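 Cells seeded at 6,000/well in RPMI with 10% FBS, grown overnight at 37 °C, then exposed 3 h to 10-dose 3-fold compound series from 10 uM (0.8% DMSO final); 0.2 uM trametinib as minimum control. Lysates read for pERK by HTRF after 2 h antibody incubation at room temperature.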

A further experiment concerns ASPC1 cells, pERK. Described as above. As to conditions: Homo sapiens, ASPC1, 3 h, AsPC-1 cells, read-out: Inhibition (HTRF IC50 nM) of KRas-mediated Phosphorylation of ERK, AsPC-1. The class given is cell-based. Summed up:
as §5

The subject of the next experiment is MKN1 cells, pERK. The experiment is described as above. The class given is cell-based. The conditions noted are these: Homo sapiens, MKN-1, 3 h, read-out: Inhibition (HTRF IC50 nM) of KRas-mediated Phosphorylation of ERK, MKN1. Summed up: as §5
A further experiment relates to A549 cells, pERK. The description is as above. The class given is cell-based. As to conditions: Homo sapiens, 3 hrs, read-out: Inhibition (HTRF IC50 nM) of KRas-mediated Phosphorylation of ERK, A549. Summed up:
as §5

A further experiment concerns H460 cells, pERK. The description is as above. The class given is cell-based. The conditions noted are these: Homo sapiens, NCI-H460, 3 hrs, read-out: Inhibition (HTRF IC50 nM) of KRas-mediated Phosphorylation of ERK, H460. Summed up: as §5
For a further experiment, the system named is PSN1 cells, pERK. The description is as above. The class given is cell-based. As to conditions: Homo sapiens, PSN1, 3 h, read-out: Inhibition (HTRF IC50 nM) of KRas-mediated Phosphorylation of ERK, PSN1. Summed up: as §5
A further experiment deals with H727 cells, pERK. The description is as above. The class given is cell-based. As to conditions: Homo sapiens, NCI-H727, 3 h, read-out: Inhibition (HTRF IC50 nM) of KRas-mediated Phosphorylation of ERK, H727. Summed up:
as §5

T1 sequence (P01116 1-169 isoform P01116-2 G12D): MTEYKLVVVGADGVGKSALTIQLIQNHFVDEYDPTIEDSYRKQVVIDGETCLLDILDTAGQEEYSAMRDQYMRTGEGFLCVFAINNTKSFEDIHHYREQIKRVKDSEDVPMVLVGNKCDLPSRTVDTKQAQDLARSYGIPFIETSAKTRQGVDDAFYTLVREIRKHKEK
T2 sequence (P01116 1-169 isoform P01116-2 G12V): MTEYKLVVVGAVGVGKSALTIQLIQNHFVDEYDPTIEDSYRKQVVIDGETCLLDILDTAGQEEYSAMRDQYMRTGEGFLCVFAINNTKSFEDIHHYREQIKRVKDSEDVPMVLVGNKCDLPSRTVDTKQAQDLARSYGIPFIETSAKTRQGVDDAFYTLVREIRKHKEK
T3 sequence (P01116 1-169 isoform P01116-2 G12R): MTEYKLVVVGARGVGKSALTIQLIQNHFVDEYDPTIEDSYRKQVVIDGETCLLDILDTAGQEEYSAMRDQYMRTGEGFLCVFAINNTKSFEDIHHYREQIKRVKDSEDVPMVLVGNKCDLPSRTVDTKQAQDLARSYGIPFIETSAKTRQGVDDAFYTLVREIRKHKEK
Description for KRas^G12D: (§6) The ability of a compound to bind to KRas was measured using a TR-FRET displacement assay. […] After a 60-minute incubation at room temperature, the reaction was measured using a BMG LABTECH CLARIO star Plus via TR-FRET. […] The POC values were fit to a 4-parameter IC50 equation and the IC50 value reported.
Description for KRas^G12R: as §6
Description for KRas^G12V: as §6

For `CCc1c(F)ccc2cc(O)cc(N3CCc4c(nc(OC[C@@]56CCCN5C[C@H](F)C6)nc4N4CC5C(=O)NC(=O)C5C4)C3)c12` (stereo partly drawn) [Example 24, 5-(7-(8-ethyl-7-fluoro-3-hydroxynaphthalen-1-yl)-2-(((2R,7aS)-2-fluorohexahydro-1H-pyrrolizin-7a-yl)methoxy)-5,6,7,8-tetrahydropyrido[3,4-d]pyrimidin-4-yl)tetrahydropyrrolo[3,4-c]pyrrole-1,3(2H,3aH)-dione], the IC50 is at most 2 nM at KRas^G12D; 25 nM in experiment [1]; 65 nM in [2]; 134 nM in experiment [3]; at most 2 nM on KRas^G12V; at most 2 nM at KRas^G12R. Further, the IC50 was determined as 148 nM in the experiment on HCT116 cells, pERK; 10 nM in the experiment on ASPC1 cells, pERK; 6 nM with MKN1 cells, pERK; 17 nM with A549 cells, pERK; 59 nM with H460 cells, pERK; 2950 nM in the experiment on PSN1 cells, pERK. For the same compound, the IC50 in the experiment with H727 cells, pERK stood at 35 nM.

For `CN(C)C(=O)c1cc2n(n1)CCCN(c1nc(OC[C@@]34CCCN3C[C@H](F)C4)nc3c1CCN(c1cc(O)cc4ccc(F)c(Cl)c14)C3)C2` [Example 229, 5-(7-(8-chloro-7-fluoro-3-hydroxynaphthalen-1-yl)-2-(((2R,7aS)-2-fluorohexahydro-1H-pyrrolizin-7a-yl)methoxy)-5,6,7,8-tetrahydropyrido[3,4-d]pyrimidin-4-yl)-N,N-dimethyl-5,6,7,8-tetrahydro-4H-pyrazolo[1,5-a][1,4]diazepine-2-carboxamide], the IC50 at KRas^G12D was at most 2 nM; on KRas^G12V, at most 2 nM; at KRas^G12R, at most 2 nM; in the experiment on HCT116 cells, pERK, 1980 nM; in the experiment on ASPC1 cells, pERK, 220 nM; in the experiment with MKN1 cells, pERK, 317 nM. Further, the IC50 was found to be 705 nM in the experiment with A549 cells, pERK; 1400 nM with H460 cells, pERK; 2140 nM in the experiment on PSN1 cells, pERK; 260 nM in the experiment on H727 cells, pERK.

For `CCc1c(F)ccc2cc(O)cc(N3CCc4c(nc(OCC5(CN(C)C)CC5)nc4N4CCCn5nc(C(=O)N(C)C)cc5C4)C3)c12` [Example 203, 5-(2-((1-((dimethylamino)methyl)cyclopropyl)methoxy)-7-(8-ethyl-7-fluoro-3-hydroxynaphthalen-1-yl)-5,6,7,8-tetrahydropyrido[3,4-d]pyrimidin-4-yl)-N,N-dimethyl-5,6,7,8-tetrahydro-4H-pyrazolo[1,5-a][1,4]diazepine-2-carboxamide], the IC50 was at most 2 nM on KRas^G12D; 52 nM at KRas^G12V; 3 nM on KRas^G12R; 1700 nM with HCT116 cells, pERK; 132 nM in the experiment on ASPC1 cells, pERK; 181 nM in the experiment on MKN1 cells, pERK. In addition, the IC50 is 524 nM with A549 cells, pERK; 1100 nM in the experiment with H460 cells, pERK; at least 10000 nM in the experiment on PSN1 cells, pERK; 283 nM in the experiment on H727 cells, pERK.

As to `O=C1NC(=O)C2(CCCN(c3nc(OC[C@@]45CCCN4C[C@H](F)C5)nc4c3CCN(c3cc(O)cc5ccc(F)c(Cl)c35)C4)C2)N1` (stereo partly drawn) [Example 69, 7-(7-(8-chloro-7-fluoro-3-hydroxynaphthalen-1-yl)-2-(((2R,7aS)-2-fluorohexahydro-1H-pyrrolizin-7a-yl)methoxy)-5,6,7,8-tetrahydropyrido[3,4-d]pyrimidin-4-yl)-1,3,7-triazaspiro[4.5]decane-2,4-dione], the IC50 was at most 2 nM on KRas^G12D; 52 nM at KRas^G12V; at most 2 nM on KRas^G12R; 164 nM in the experiment with HCT116 cells, pERK; 122 nM in the experiment with ASPC1 cells, pERK; 41 nM in the experiment with MKN1 cells, pERK. Besides, the IC50 in the experiment with A549 cells, pERK was determined as 59 nM; with H460 cells, pERK it was 68 nM; in the experiment on PSN1 cells, pERK it was 578 nM; in the experiment with H727 cells, pERK, 194 nM.

With `O=C1NC(=O)C2CN(c3nc(OC[C@@]45CCCN4C[C@H](F)C5)nc4c3CCN(c3cc(O)cc5ccc(F)c(Cl)c35)C4)CC12` (stereo partly drawn) [Example 232, 5-(7-(8-chloro-7-fluoro-3-hydroxynaphthalen-1-yl)-2-(((2R,7aS)-2-fluorohexahydro-1H-pyrrolizin-7a-yl)methoxy)-5,6,7,8-tetrahydropyrido[3,4-d]pyrimidin-4-yl)tetrahydropyrrolo[3,4-c]pyrrole-1,3(2H,3aH)-dione], the IC50 at KRas^G12D was at most 2 nM; on KRas^G12V it was at most 2 nM; at KRas^G12R it was at most 2 nM; in the experiment with HCT116 cells, pERK, 709 nM; with ASPC1 cells, pERK, 125 nM; in the experiment with MKN1 cells, pERK, 34 nM. Further, the IC50 turned out to be 98 nM in the experiment with A549 cells, pERK; 331 nM with H460 cells, pERK; 2770 nM with PSN1 cells, pERK; 114 nM in the experiment with H727 cells, pERK.

As for `CCc1c(F)ccc2cc(O)cc(N3CCc4c(nc(OC[C@@H]5CCCN5C)nc4N4CCCn5nc(C(=O)N(C)C)cc5C4)C3)c12` [Example 198, 5-[7-(8-ethyl-7-fluoro-3-hydroxy-1-naphthyl)-2-[[(2S)-1-methylpyrrolidin-2-yl]methoxy]-6,8-dihydro-5H-pyrido[3,4-d]pyrimidin-4-yl]-N,N-dimethyl-4,6,7,8-tetrahydropyrazolo[1,5-a][1,4]diazepine-2-carboxamide], the IC50 on KRas^G12D is at most 2 nM; at KRas^G12V it was at most 2 nM; at KRas^G12R, 5 nM; in the experiment on HCT116 cells, pERK it was 1950 nM; in the experiment with ASPC1 cells, pERK it was 185 nM; with MKN1 cells, pERK it was 185 nM. Further, the IC50 in the experiment with A549 cells, pERK was 671 nM; in the experiment on H460 cells, pERK it was 1240 nM; in the experiment with PSN1 cells, pERK, at least 10000 nM; with H727 cells, pERK, 344 nM.

Consider `O=C1NCC2(CCCN(c3nc(OC[C@@]45CCCN4C[C@H](F)C5)nc4c3CCN(c3cc(O)cc5ccc(F)c(Cl)c35)C4)C2)N1` (stereo partly drawn) [Example 228, 7-(7-(8-chloro-7-fluoro-3-hydroxynaphthalen-1-yl)-2-(((2R,7aS)-2-fluorohexahydro-1H-pyrrolizin-7a-yl)methoxy)-5,6,7,8-tetrahydropyrido[3,4-d]pyrimidin-4-yl)-1,3,7-triazaspiro[4.5]decan-2-one], for which the IC50 at KRas^G12D is at most 2 nM; on KRas^G12V, at most 2 nM; at KRas^G12R it was at most 2 nM; in the experiment on HCT116 cells, pERK, 405 nM; with ASPC1 cells, pERK it was 108 nM; in the experiment on MKN1 cells, pERK, 24 nM. For the same compound, the IC50 in the experiment on A549 cells, pERK was 146 nM; in the experiment on H460 cells, pERK it was 253 nM; with PSN1 cells, pERK it was 696 nM; in the experiment with H727 cells, pERK, 197 nM.

As a reminder, the IC50 is the concentration at which inhibition is half-maximal.
